Data reported in ChEMBL document CHEMBL1201862, “PubChem BioAssay data set” (2004).
Activity calls are given as the source filed them.

Experiments:
Protein skinhead-1 = target: T1, Protein skinhead-1 (Caenorhabditis elegans, UniProt P34707); type: functional
T1 sequence (P34707 whole entry): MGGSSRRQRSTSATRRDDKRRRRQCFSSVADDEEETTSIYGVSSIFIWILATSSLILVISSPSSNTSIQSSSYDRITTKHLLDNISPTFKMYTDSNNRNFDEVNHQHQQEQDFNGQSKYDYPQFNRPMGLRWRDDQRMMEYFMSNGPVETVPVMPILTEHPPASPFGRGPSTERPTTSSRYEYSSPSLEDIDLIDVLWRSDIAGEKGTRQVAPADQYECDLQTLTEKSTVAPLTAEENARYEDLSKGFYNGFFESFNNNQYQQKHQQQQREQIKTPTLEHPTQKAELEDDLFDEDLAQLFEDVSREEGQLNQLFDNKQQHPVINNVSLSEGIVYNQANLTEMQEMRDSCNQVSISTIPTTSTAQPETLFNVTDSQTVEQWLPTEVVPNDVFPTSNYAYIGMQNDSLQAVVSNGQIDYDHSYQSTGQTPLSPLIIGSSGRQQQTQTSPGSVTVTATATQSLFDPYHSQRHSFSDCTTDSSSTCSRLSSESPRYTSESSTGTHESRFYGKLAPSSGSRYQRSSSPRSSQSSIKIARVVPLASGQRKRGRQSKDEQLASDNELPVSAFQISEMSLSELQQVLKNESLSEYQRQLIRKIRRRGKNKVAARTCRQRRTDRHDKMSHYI

[1] = viability of uninfected HEp-2 cells – cell-based, HTS, cytotoxicity control for RSV inhibitor project, dose response (AID 2410); type: functional; details: human respiratory syncytial virus
[2] = viability of HCT116 lacking mutant beta-catenin – cell-based, human colon tumor, dose response (AID 1045); type: functional;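 also: HCT116 colon tumor cells with beta catenin knocked out; cells exposed to compound for 60 hours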
[3] = viability of PTEN-deleted HCT116 cells – cell-based, HCT116 PTEN knockout, dose response (AID 1047); type: functional;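 also: HCT116 colon tumor cells with PTEN knocked out; cells exposed to compound for 60 hours before readout; potency for loss of cell viability measured by luminescence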
[4] = DRD fibroblast viability loss – cell-based, non-viral oncogenic, luminescence, dose response (AID 1934); type: functional; details: Homo sapiens
BJ [5] = test: BJ-TERT fibroblast viability loss – cell-based, RAS-independent, luminescence, dose response (AID 1933); type: functional; details: Homo sapiens
BJ [6] = test: cells; type: functional, cell-based; details: Homo sapiens
BJ [7] = test: BJ-TERT-LT-ST fibroblast viability loss – cell-based, RAS-independent, luminescence, dose response (AID 1935); type: functional; details: Homo sapiens;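 also: BJ fibroblasts immortalized with TERT plus LT and ST oncogenes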
Vero [8] = test: cells; type: functional; details: Chlorocebus sabaeus
Streptococcus = test: GAS UMAA2166 growth inhibition – luminescence, BacTiterGlo, counter-screen for streptokinase expression inhibitor project, dose response (AID 1915); type: functional, organism-based;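 also: potency for reduction of bacterial viability or growth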
[9] = Luminescence Cell-Based Dose Confirmation HTS to Identify Activators of 5'UTR Stem-Loop Driven Alpha-Synuclein mRNA Translation in H4 Neuroglioblastoma Cells. [Related pubchem assays: 1829 (Project Summary), 1814 (Primary HTS)]; type: functional
[10] = test system: Streptococcus sp. 'group A'; test: Streptococcus pyogenes SK(-)GAS viability under kanamycin – luminescence, BacTiterGlo, confirmation, counter-screen for streptokinase expression inhibitor project, dose response (AID 1900); type: functional, organism-based
[11] = Luminescence Cell-Based Dose Response HTS to Identify Activators of Luciferase Translation or Activity in H4 […] Cells. [Related pubchem assays: 1829 (Project Summary), 1814 (Primary HTS)]; type: functional
H4 = test: Luminescence Cell-Based Dose Response HTS to Identify Activators of 5'UTR Stem-Loop Driven Prion Protein mRNA Translation in H4 Neuroglioblastoma Cells. [Related pubchem assays: 1829 (Project Summary), 1814 (Primary HTS)]; type: functional; details: Homo sapiens
Streptokinase A = target: T2, Streptokinase A (Streptococcus pyogenes serotype M1, UniProt P10520); test: viability-normalized secreted streptokinase activity reduction – plasminogen activation absorbance, OD405, dose response (AID 1914); type: functional, Streptococcus pyogenes M1 GAS;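 also: secreted streptokinase activity via plasminogen activation per viability signal from cell pellet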
T2 sequence (P10520 whole entry): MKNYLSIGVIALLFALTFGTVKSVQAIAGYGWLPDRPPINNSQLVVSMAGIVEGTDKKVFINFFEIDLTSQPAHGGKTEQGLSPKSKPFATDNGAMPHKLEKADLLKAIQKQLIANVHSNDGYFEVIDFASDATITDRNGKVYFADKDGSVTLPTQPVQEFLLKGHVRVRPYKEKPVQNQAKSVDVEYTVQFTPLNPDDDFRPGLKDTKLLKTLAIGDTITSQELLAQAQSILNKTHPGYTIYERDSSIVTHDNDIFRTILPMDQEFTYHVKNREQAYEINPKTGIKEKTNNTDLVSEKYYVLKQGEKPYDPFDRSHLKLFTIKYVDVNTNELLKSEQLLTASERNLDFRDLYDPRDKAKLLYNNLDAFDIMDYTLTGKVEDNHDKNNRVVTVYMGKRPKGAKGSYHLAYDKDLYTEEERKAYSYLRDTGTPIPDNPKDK

Vero [12] = test: cells; type: functional, cell-based; details: Chlorocebus sabaeus
Leucine aminopeptidase = target: T3, Leucine aminopeptidase (Plasmodium falciparum 3D7, UniProt Q8IL11); test: P. falciparum M17LAP inhibitors, primary screen, biochemical, fluorogenic H-Leu-NHMec substrate, 1536-well (AID 1619); type: functional
T3 sequence (Q8IL11 whole entry): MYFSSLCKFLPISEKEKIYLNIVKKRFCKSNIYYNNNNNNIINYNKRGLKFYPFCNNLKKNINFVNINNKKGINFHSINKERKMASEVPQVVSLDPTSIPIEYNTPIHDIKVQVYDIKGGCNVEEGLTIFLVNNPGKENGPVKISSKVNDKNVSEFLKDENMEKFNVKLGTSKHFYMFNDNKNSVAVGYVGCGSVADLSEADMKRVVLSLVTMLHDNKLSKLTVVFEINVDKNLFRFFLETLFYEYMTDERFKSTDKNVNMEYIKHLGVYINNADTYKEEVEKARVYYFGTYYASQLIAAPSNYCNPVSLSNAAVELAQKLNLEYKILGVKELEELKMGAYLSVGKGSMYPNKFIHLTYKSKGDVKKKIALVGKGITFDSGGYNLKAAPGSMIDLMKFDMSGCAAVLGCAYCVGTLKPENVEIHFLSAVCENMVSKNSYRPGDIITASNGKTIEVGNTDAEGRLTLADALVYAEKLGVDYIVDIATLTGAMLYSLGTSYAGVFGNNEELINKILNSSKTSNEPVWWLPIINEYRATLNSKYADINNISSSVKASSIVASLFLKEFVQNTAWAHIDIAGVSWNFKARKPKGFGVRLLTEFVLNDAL

[13] = target: T4, Corticotropin-releasing factor receptor 2/Corticotropin-releasing factor-binding protein (Homo sapiens, UniProt P24387+Q13324); test: activators of CRF receptor 2 with binding protein – uHTS hits, confirmation (AID 602473); type: functional; details: read-out: EC50_Mean
T4 sequence (Q13324 whole entry): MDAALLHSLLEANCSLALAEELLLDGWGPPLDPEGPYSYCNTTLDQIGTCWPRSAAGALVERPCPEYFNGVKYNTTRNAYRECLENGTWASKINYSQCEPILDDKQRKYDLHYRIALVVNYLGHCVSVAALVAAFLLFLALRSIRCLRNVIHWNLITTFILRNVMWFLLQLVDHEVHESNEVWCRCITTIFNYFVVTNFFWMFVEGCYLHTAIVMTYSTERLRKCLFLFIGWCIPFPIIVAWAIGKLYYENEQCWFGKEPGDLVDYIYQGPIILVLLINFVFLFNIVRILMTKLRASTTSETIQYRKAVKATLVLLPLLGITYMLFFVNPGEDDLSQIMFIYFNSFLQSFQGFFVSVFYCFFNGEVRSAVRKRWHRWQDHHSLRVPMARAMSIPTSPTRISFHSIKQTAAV
T4 sequence (P24387 whole entry): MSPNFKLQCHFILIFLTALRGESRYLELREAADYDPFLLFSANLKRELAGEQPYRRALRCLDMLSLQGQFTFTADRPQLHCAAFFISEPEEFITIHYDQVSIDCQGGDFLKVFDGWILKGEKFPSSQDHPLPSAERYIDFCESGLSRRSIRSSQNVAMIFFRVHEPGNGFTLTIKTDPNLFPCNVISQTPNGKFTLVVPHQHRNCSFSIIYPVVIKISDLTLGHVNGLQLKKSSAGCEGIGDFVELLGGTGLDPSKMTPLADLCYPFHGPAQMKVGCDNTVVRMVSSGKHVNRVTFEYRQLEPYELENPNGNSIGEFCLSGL

[14] = target: T4, Corticotropin-releasing factor receptor 2/Corticotropin-releasing factor-binding protein; test: Dose Response confirmation of uHTS hits for small molecule antagonists of the CRF-binding protein and CRF-R2 receptor complex.; type: functional; details: read-out: IC50_Mean
[15] = P. falciparum Dd2 growth inhibitors, dose response, SYBR Green, cherry-picked samples (AID 1159567); type: functional, cell-based

N#C/C(=C\c1ccc(Cl)cc1Cl)c1n[nH]c(Cn2cncn2)n1
IC50 (Protein skinhead-1): > 100 µM (inactive)

CCN(c1ccccc1)S(=O)(=O)c1cccc(C(=O)Nc2ccc(C)cn2)c1
CC50 [1]: 30.3 µM (active)
IC50 (Protein skinhead-1): > 100 µM (inactive)

CC1CCCCN1S(=O)(=O)c1ccc(C(=O)Nc2ccccc2-c2nc3ccccc3[nH]2)cc1 (stereo not given)
EC50 [2]: 25.5 µM (active)
EC50 [3]: 17 µM (active)

CCCc1nnc(NC(=O)CCC(=O)N2CCN(Cc3ccc(OC)c(F)c3)CC2)s1
EC50 [4]: > 150 µM (not active)
EC50 (BJ [5]): 25.9 µM (active)
EC50 (BJ [6]): > 150 µM (inconclusive)
EC50 (BJ [7]): > 150 µM (not active)

CC1CC(C)CN(Cc2nc(N)nc(Nc3ccc4ccccc4c3)n2)C1 (stereo not given)
CC50 (Vero [8]): 14.1 µM (active)
EC50 (Streptococcus): > 150 µM (not active)
EC50 [9]: > 60 µM (not active)
EC50 [10]: > 150 µM (not active)
EC50 [11]: 12.9 µM (active)
EC50 (H4): > 120 µM (not active)
EC50 (Streptokinase A): > 150 µM (not active)
IC50 (Vero [12]): > 25 µM (active)

Nc1nc2c(s1)C(=O)CC(c1ccccc1)C2 (stereo not given)
IC50 (Leucine aminopeptidase): 58.8 µM (active)

CC1(C)Cc2c(sc3nc(-c4cccs4)n(N)c(=O)c23)CO1
EC50 [2]: 23.9 µM (active)
EC50 [3]: 16.7 µM (active)

Cc1ccc(NC(=O)CSc2nnc[nH]2)cc1
IC50 (Leucine aminopeptidase): 34 µM (active)

O=C(Cc1nnc(O)c2ccccc12)OCc1c(Cl)cccc1Cl
IC50 (Vero [12]): 8 µM (active)

N#CC1=C(N)N(c2ccc(F)cc2)C2=C(C1c1ccc(O)cc1)S(=O)(=O)CC2 (stereo not given)
IC50 (Protein skinhead-1): > 100 µM (inactive)

O=C(CSc1ccccc1)NN1C(=O)c2ccccc2C1=O
IC50 (Leucine aminopeptidase): 54.4 µM (active)
EC50 [13]: > 53 µM (inactive)
IC50 [14]: > 47.1 µM (inactive)

COc1ccc(OC)c(C(=O)C2COC(=O)C2)c1 (stereo not given)
IC50 (Protein skinhead-1): > 100 µM (inactive)

COc1ccc(C(=O)Nc2ccccc2C(=O)N(Cc2ccco2)C(C(N)=O)C(C)C)cc1 (stereo not given)
EC50 [2]: 9.3 µM (active)
EC50 [3]: 6.76 µM (active)

COc1ccc(/C=C/C(=O)c2ccc(O)cc2)cc1CN1CCOCC1
CC50 (Vero [8]): > 25 µM (active)
IC50 (Vero [12]): 8.49 µM (active)

Nc1ccc2c(c1)sc1ccccc12
IC50 (Protein skinhead-1): 29 µM (active)

CC(=O)/C(C#N)=C1\NC(=O)C(Cc2ccc(C)c(C)c2)S1 (stereo not given)
CC50 (Vero [8]): > 25 µM (active)
IC50 (Vero [12]): 5.04 µM (active)

Cc1c(Nc2nc3ccccc3nc2NS(=O)(=O)c2ccccc2)c(=O)n(-c2ccccc2)n1C
IC50 (Leucine aminopeptidase): 68.1 µM (active)

CC(=O)c1ccc(OCCCC(=O)n2nnc3ccccc32)cc1
IC50 (Leucine aminopeptidase): 61.9 µM (active)

COc1ccccc1C(=O)N1CCN(c2cccc(Cl)c2)CC1
EC50 [4]: 1.37 µM (active)
EC50 (BJ [5]): 1.79 µM (active)
EC50 (BJ [6]): 38.6 µM (inconclusive)
EC50 (BJ [7]): 0.833 µM (inconclusive)

O=C(c1cnn(C(=O)c2ccccc2)c1)c1ccccc1O
IC50 (Leucine aminopeptidase): 72.6 µM (active)

COc1ccc(OC)c(NC(=O)[C@H]2CC=CC[C@H]2C(=O)O)c1
IC50 (Leucine aminopeptidase): 18.5 µM (active)

COc1cc(/C=C/C(=O)c2cccc([N+](=O)[O-])c2)cc(OC)c1OC
EC50 [2]: 2.7 µM (active)
EC50 [3]: 3.46 µM (active)

Cc1c(/C=N/NC(=O)c2cccs2)c2ccccc2n1Cc1ccccc1Cl
CC50 (Vero [8]): > 25 µM (active)
IC50 (Vero [12]): > 25 µM (active)

CCCOc1ccc(/C=N/Nc2ccccc2[N+](=O)[O-])c(O)c1
EC50 [4]: 10.1 µM (active)
EC50 (BJ [5]): 11.3 µM (active)
EC50 (BJ [6]): 12.2 µM (active)
EC50 (BJ [7]): > 150 µM (inconclusive)

COc1ccc2c3c([nH]c2c1)[C@H](CO)N(Cc1ccccc1Cl)CC31CN(C(C)=O)C1
AC50 [15]: 5.9 µM (active)

CCCc1cn([C@H]2C[C@@H]3O[C@@H](CO)CC[C@@H]3O[C@@H]2CCc2ccc(-c3ccc(OC)cc3)cc2)nn1
AC50 [15]: 6.63 µM (active)

COc1cccc(-c2ccc3c(c2)[C@H]2[C@H](CCN2C(=O)C2CCCCC2)[C@@H](CO)N3)c1
AC50 [15]: 4.95 µM (active)

COc1ccc2c3c([nH]c2c1)[C@@H](CO)N(Cc1ccc(Cl)cc1)CC31CCN(Cc2nccs2)CC1
AC50 [15]: 4.65 µM (active)

O=C(Nc1ccc(Cl)c(Cl)c1)c1ccccc1
IC50 (Protein skinhead-1): > 100 µM (inactive)
